According to ChEMBL document CHEMBL1201861, “Genomics of Drug Sensitity in Cancer screening data, Wellcome Trust Sanger Institute”:

Key:
Assay in all cases: cells
Assay type in all cases: functional, cell-based
Details in all cases: Homo sapiens
KYSE-70 cell line = tested on: KYSE-70 cell line;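 further: cell viability assay read-out, with IC50 expressing suppression of KYSE-70 cell growth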
Description: SANGER: Inhibition of human KYSE-70 cell growth in a cell viability assay.

RERF-LC-MS = tested on: RERF-LC-MS;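 further: growth inhibition of human RERF-LC-MS cells, read out by a cell viability assay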
Description: SANGER: Inhibition of human RERF-LC-MS cell growth in a cell viability assay.

SW1783 = tested on: SW1783;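 further: cell growth inhibition measured with a viability assay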
Description: SANGER: Inhibition of human SW1783 cell growth in a cell viability assay.

HT-3 = tested on: HT-3;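 further: growth inhibition measured with a cell viability readout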
Description: SANGER: Inhibition of human HT-3 cell growth in a cell viability assay.

HuO9 = tested on: HuO9;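 further: growth inhibition of HuO9 cells, read out with a cell viability assay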
Description: SANGER: Inhibition of human HuO9 cell growth in a cell viability assay.

SNU-387 = tested on: SNU-387
Description: SANGER: Inhibition of human SNU-387 cell growth in a cell viability assay.

COR-L105 = tested on: COR-L105;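 further: cell growth inhibition determined with a viability assay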
Description: SANGER: Inhibition of human COR-L105 cell growth in a cell viability assay.

NCI-H1436 = tested on: NCI-H1436;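 further: growth suppression of human NCI-H1436 cells, determined with a cell viability readout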
Description: SANGER: Inhibition of human NCI-H1436 cell growth in a cell viability assay.

Daudi = tested on: Daudi;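 further: growth inhibition of Daudi cells, read out by a viability assay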
Description: SANGER: Inhibition of human Daudi cell growth in a cell viability assay.

Kasumi 1 = tested on: Kasumi 1;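 further: growth inhibition of human Kasumi-1 cells, read out by a cell viability assay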
Description: SANGER: Inhibition of human KASUMI-1 cell growth in a cell viability assay.

SW948 = tested on: SW948;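 further: growth inhibition of SW948 cells, read out with a cell viability assay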
Description: SANGER: Inhibition of human SW948 cell growth in a cell viability assay.

LB996-RCC = tested on: LB996-RCC
Description: SANGER: Inhibition of human LB996-RCC cell growth in a cell viability assay.

EFO-21 = tested on: EFO-21;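 further: growth inhibition of EFO-21 cells measured with a viability assay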
Description: SANGER: Inhibition of human EFO-21 cell growth in a cell viability assay.

SF-295 = tested on: SF-295;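 further: growth inhibition of SF-295 cells, read out with a cell viability assay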
Description: SANGER: Inhibition of human SF295 cell growth in a cell viability assay.

PC-14 = tested on: PC-14;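 further: cell viability assay measuring inhibition of PC-14 cell growth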
Description: SANGER: Inhibition of human PC-14 cell growth in a cell viability assay.

T84 = tested on: T84;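 further: growth inhibition measured with a cell viability readout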
Description: SANGER: Inhibition of human T84 cell growth in a cell viability assay.

EHEB = tested on: EHEB;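 further: growth inhibition of human EHEB cells, read out with a cell viability assay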
Description: SANGER: Inhibition of human EHEB cell growth in a cell viability assay.

KYSE-520 cell line = tested on: KYSE-520 cell line;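 further: growth inhibition of human KYSE-520 cells, read out with a viability assay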
Description: SANGER: Inhibition of human KYSE-520 cell growth in a cell viability assay.

MG-63 = tested on: MG-63;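 further: growth inhibition of human MG-63 cells, read out with a cell viability assay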
Description: SANGER: Inhibition of human MG-63 cell growth in a cell viability assay.

KU-19-19 = tested on: KU-19-19
Description: SANGER: Inhibition of human KU-19-19 cell growth in a cell viability assay.

U-698-M = tested on: U-698-M
Description: SANGER: Inhibition of human U-698-M cell growth in a cell viability assay.

KYSE-510 = tested on: KYSE-510;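 further: cell viability readout used to measure how strongly growth of the cell line is suppressed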
Description: SANGER: Inhibition of human KYSE-510 cell growth in a cell viability assay.

HCC38 = tested on: HCC38;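 further: cell viability assay on the human HCC38 cell line, with IC50 marking the concentration that inhibits cell growth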
Description: SANGER: Inhibition of human HCC38 cell growth in a cell viability assay.

MDA-MB-175-VII = tested on: MDA-MB-175-VII
OAW-42 = tested on: OAW-42;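 further: growth inhibition of OAW-42 cells, read out with a cell viability assay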
Description: SANGER: Inhibition of human OAW-42 cell growth in a cell viability assay.

P31-FUJ = tested on: P31-FUJ;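 further: growth inhibition of P31-FUJ cells, read out with a viability assay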
Description: SANGER: Inhibition of human P31-FUJ cell growth in a cell viability assay.

SCC-9 = tested on: SCC-9;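 further: Read-out is a cell viability assay, with values giving inhibition of cell growth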
Description: SANGER: Inhibition of human SCC-9 cell growth in a cell viability assay.

J82 = tested on: J82;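 further: growth inhibition of J82 cells, read out with a cell viability assay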
Description: SANGER: Inhibition of human J82 cell growth in a cell viability assay.

COLO-792 = tested on: COLO-792
Description: SANGER: Inhibition of human COLO-792 cell growth in a cell viability assay.

REH = tested on: REH;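 further: growth inhibition of REH cells determined with a cell viability read-out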
Description: SANGER: Inhibition of human REH cell growth in a cell viability assay.

NCI-H2122 = tested on: NCI-H2122;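 further: growth inhibition of the cells, read out with a cell viability assay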
Description: SANGER: Inhibition of human NCI-H2122 cell growth in a cell viability assay.

KMS-12-PE = tested on: KMS-12-PE;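 further: growth inhibition of human KMS-12-PE cells, measured with a cell viability assay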
Description: SANGER: Inhibition of human KMS-12-PE cell growth in a cell viability assay.

HCC1419 = tested on: HCC1419;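 further: growth inhibition of human HCC1419 cells, read out as cell viability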
Description: SANGER: Inhibition of human HCC1419 cell growth in a cell viability assay.

NCI-H748 = tested on: NCI-H748;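 further: growth inhibition of NCI-H748 cells, measured by a cell viability assay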
Description: SANGER: Inhibition of human NCI-H748 cell growth in a cell viability assay.

SiHa = tested on: SiHa;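 further: Viability-based readout of growth inhibition in SiHa cells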
Description: SANGER: Inhibition of human SiHa cell growth in a cell viability assay.

HT-1080 = tested on: HT-1080
Description: SANGER: Inhibition of human HT-1080 cell growth in a cell viability assay.

AU565 = tested on: AU565;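 further: cell viability assay measuring growth inhibition of human AU565 cells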
Description: SANGER: Inhibition of human AU565 cell growth in a cell viability assay.

NCI-H2196 = tested on: NCI-H2196;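 further: cell viability assay used as the readout of growth inhibition in NCI-H2196 cells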
Description: SANGER: Inhibition of human NCI-H2196 cell growth in a cell viability assay.

EFO-27 = tested on: EFO-27;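 further: growth inhibition of EFO-27 cells, read out with a cell viability assay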
Description: SANGER: Inhibition of human EFO-27 cell growth in a cell viability assay.

639-V = tested on: 639-V;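 further: growth inhibition of 639-V cells, read out with a cell viability assay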
Description: SANGER: Inhibition of human 639-V cell growth in a cell viability assay.

RT-112 = tested on: RT-112
Description: SANGER: Inhibition of human RT-112 cell growth in a cell viability assay.

BL-41 = tested on: BL-41;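 further: growth inhibition of human BL-41 cells, read out with a cell viability assay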
Description: SANGER: Inhibition of human BL-41 cell growth in a cell viability assay.

LU-99A = tested on: LU-99A;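 further: growth inhibition of LU-99A cells, read out with a cell viability assay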
Description: SANGER: Inhibition of human LU-99A cell growth in a cell viability assay.

SUP-T1 = tested on: SUP-T1;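 further: growth inhibition of human SUP-T1 cells, read out as cell viability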
Description: SANGER: Inhibition of human SUP-T1 cell growth in a cell viability assay.

NCI-H596 = tested on: NCI-H596;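 further: growth inhibition of NCI-H596 cells, read out with a cell viability assay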
Description: SANGER: Inhibition of human NCI-H596 cell growth in a cell viability assay.

NCI-H1651 = tested on: NCI-H1651;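 further: Read-out is a cell viability assay, with IC50 expressing inhibition of NCI-H1651 cell growth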
Description: SANGER: Inhibition of human NCI-H1651 cell growth in a cell viability assay.

BFTC-905 = tested on: BFTC-905
Description: SANGER: Inhibition of human BFTC-905 cell growth in a cell viability assay.

CA46 = tested on: CA46;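 further: growth inhibition of human CA46 cells, read out by a cell viability assay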
Description: SANGER: Inhibition of human CA46 cell growth in a cell viability assay.

DMS-153 = tested on: DMS-153
Description: SANGER: Inhibition of human DMS-153 cell growth in a cell viability assay.

SK-MEL-24 = tested on: SK-MEL-24;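 further: growth inhibition read out by a cell viability assay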
Description: SANGER: Inhibition of human SK-MEL-24 cell growth in a cell viability assay.

HCT-116 = tested on: HCT-116
Description: SANGER: Inhibition of human HCT-116 cell growth in a cell viability assay.

Hs-578T = tested on: Hs-578T
Description: SANGER: Inhibition of human Hs-578-T cell growth in a cell viability assay.

H4 = tested on: H4
Description: SANGER: Inhibition of human H4 cell growth in a cell viability assay.

U-251 = tested on: U-251;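 further: growth inhibition of human U-251 cells, read out through a cell viability assay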
Description: SANGER: Inhibition of human U251 cell growth in a cell viability assay.

SK-MM-2 = tested on: SK-MM-2;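 further: growth inhibition of human SK-MM-2 cells, read out with a cell viability assay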
Description: SANGER: Inhibition of human SK-MM-2 cell growth in a cell viability assay.

NCI-H441 = tested on: NCI-H441;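 further: growth inhibition of NCI-H441 cells, read out with a cell viability assay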
Description: SANGER: Inhibition of human NCI-H441 cell growth in a cell viability assay.

DBTRG-05MG = tested on: DBTRG-05MG;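 further: cell viability assay measuring growth inhibition of human DBTRG-05MG cells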
Description: SANGER: Inhibition of human DBTRG-05MG cell growth in a cell viability assay.

NCI-H1792 = tested on: NCI-H1792;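 further: growth inhibition of human NCI-H1792 cells, read out as cell viability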
Description: SANGER: Inhibition of human NCI-H1792 cell growth in a cell viability assay.

8305C = tested on: 8305C
Description: SANGER: Inhibition of human 8305C cell growth in a cell viability assay.

UACC-893 = tested on: UACC-893
Description: SANGER: Inhibition of human UACC-893 cell growth in a cell viability assay.

A-431 = tested on: A-431;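 further: growth inhibition of A-431 cells, determined with a cell viability read-out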
Description: SANGER: Inhibition of human A431 cell growth in a cell viability assay.

NALM-6 = tested on: NALM-6;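 further: growth inhibition of NALM-6 cells, read out with a cell viability assay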
Description: SANGER: Inhibition of human NALM-6 cell growth in a cell viability assay.

HLE = tested on: HLE;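 further: growth inhibition of human HLE cells, read out by a cell viability assay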
Description: SANGER: Inhibition of human HLE cell growth in a cell viability assay.

LK-2 = tested on: LK-2;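 further: growth inhibition of LK-2 cells, read out with a viability assay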
Description: SANGER: Inhibition of human LK-2 cell growth in a cell viability assay.

SMILES: CC(C)=CC[C@@H](O)C1=CC(=O)c2c(O)ccc(O)c2C1=O [SHIKONIN]
- IC50 (KYSE-70 cell line): 2.42 µM
- IC50 (RERF-LC-MS): 4.19 µM
- IC50 (SW1783): 1.07 µM
- IC50 (HT-3): 0.948 µM
- IC50 (HuO9): 1.66 µM
- IC50 (SNU-387): 1.07 µM
- IC50 (COR-L105): 0.23 µM
- IC50 (NCI-H1436): 0.604 µM
- IC50 (Daudi): 3.44 µM
- IC50 (Kasumi 1): 0.124 µM
- IC50 (SW948): 11.9 µM
- IC50 (LB996-RCC): > 16 µM
- IC50 (EFO-21): 1.34 µM
- IC50 (SF-295): 0.664 µM
- IC50 (PC-14): 1.51 µM
- IC50 (T84): 14.5 µM
- IC50 (EHEB): 2.09 µM
- IC50 (KYSE-520 cell line): 0.598 µM
- IC50 (MG-63): 0.257 µM
- IC50 (KU-19-19): 3.18 µM
- IC50 (U-698-M): 0.301 µM
- IC50 (KYSE-510): 0.253 µM
- IC50 (HCC38): 0.787 µM
- IC50 (MDA-MB-175-VII): 2.05 µM
- IC50 (OAW-42): 0.578 µM
- IC50 (P31-FUJ): 2.07 µM
- IC50 (SCC-9): 0.197 µM
- IC50 (J82): 0.143 µM
- IC50 (COLO-792): > 16 µM
- IC50 (REH): 0.147 µM
- IC50 (NCI-H2122): > 16 µM
- IC50 (KMS-12-PE): 0.559 µM
- IC50 (HCC1419): 1.69 µM
- IC50 (NCI-H748): 1.78 µM
- IC50 (SiHa): > 16 µM
- IC50 (HT-1080): 0.26 µM
- IC50 (AU565): 1.24 µM
- IC50 (NCI-H2196): 0.654 µM
- IC50 (EFO-27): 0.33 µM
- IC50 (639-V): 0.265 µM
- IC50 (RT-112): 0.0704 µM
- IC50 (BL-41): 0.483 µM
- IC50 (LU-99A): 1.3 µM
- IC50 (SUP-T1): 1.82 µM
- IC50 (NCI-H596): 0.818 µM
- IC50 (NCI-H1651): > 16 µM
- IC50 (BFTC-905): 0.284 µM
- IC50 (CA46): 0.192 µM
- IC50 (DMS-153): > 16 µM
- IC50 (SK-MEL-24): 1.13 µM
- IC50 (HCT-116): 0.386 µM
- IC50 (Hs-578T): 6.22 µM
- IC50 (H4): 0.284 µM
- IC50 (U-251): 1.43 µM
- IC50 (SK-MM-2): 0.499 µM
- IC50 (NCI-H441): 15.8 µM
- IC50 (DBTRG-05MG): 0.611 µM
- IC50 (NCI-H1792): > 16 µM
- IC50 (8305C): 0.305 µM
- IC50 (UACC-893): > 16 µM
- IC50 (A-431): 0.107 µM
- IC50 (NALM-6): < 0.0625 µM
- IC50 (HLE): 0.0883 µM
- IC50 (LK-2): 8.57 µM

SMILES: Fc1cc(-c2cc[nH]/c(=N/c3ccc(-n4cnc(N5CCOCC5)n4)cc3)n2)cc(N2CCOCC2)c1
- IC50 (KYSE-70 cell line): 0.627 µM
- IC50 (RERF-LC-MS): 0.874 µM
- IC50 (SW1783): 0.428 µM
- IC50 (HT-3): 0.102 µM
- IC50 (HuO9): 0.638 µM
- IC50 (SNU-387): 0.417 µM
- IC50 (COR-L105): 0.235 µM
- IC50 (NCI-H1436): 1.18 µM
- IC50 (Daudi): 0.381 µM
- IC50 (Kasumi 1): 0.34 µM
- IC50 (SW948): 0.835 µM
- IC50 (LB996-RCC): 0.522 µM
- IC50 (EFO-21): 0.913 µM
- IC50 (SF-295): 0.555 µM
- IC50 (PC-14): 0.877 µM
- IC50 (T84): 1.52 µM
- IC50 (EHEB): 0.376 µM
- IC50 (KYSE-520 cell line): 0.448 µM
- IC50 (MG-63): 0.669 µM
- IC50 (KU-19-19): 5.1 µM
- IC50 (U-698-M): 0.282 µM
- IC50 (KYSE-510): 0.447 µM
- IC50 (HCC38): 1.73 µM
- IC50 (MDA-MB-175-VII): 2.96 µM
- IC50 (OAW-42): 0.877 µM
- IC50 (P31-FUJ): 4.64 µM
- IC50 (SCC-9): 0.218 µM
- IC50 (J82): 0.8 µM
- IC50 (COLO-792): > 5.12 µM
- IC50 (REH): 0.722 µM
- IC50 (NCI-H2122): 0.238 µM
- IC50 (KMS-12-PE): 1.16 µM
- IC50 (HCC1419): 1.09 µM
- IC50 (NCI-H748): 1.08 µM
- IC50 (SiHa): 1.11 µM
- IC50 (HT-1080): 0.428 µM
- IC50 (AU565): 0.285 µM
- IC50 (NCI-H2196): 0.786 µM
- IC50 (EFO-27): 0.413 µM
- IC50 (639-V): 0.22 µM
- IC50 (RT-112): 0.337 µM
- IC50 (BL-41): 0.307 µM
- IC50 (LU-99A): 0.74 µM
- IC50 (SUP-T1): 0.427 µM
- IC50 (NCI-H596): 0.814 µM
- IC50 (NCI-H1651): 1.07 µM
- IC50 (BFTC-905): 0.141 µM
- IC50 (CA46): 0.333 µM
- IC50 (DMS-153): 1.24 µM
- IC50 (SK-MEL-24): > 5.12 µM
- IC50 (HCT-116): 0.164 µM
- IC50 (Hs-578T): > 5.12 µM
- IC50 (H4): 0.439 µM
- IC50 (U-251): 1.31 µM
- IC50 (SK-MM-2): 1.27 µM
- IC50 (NCI-H441): > 5.12 µM
- IC50 (DBTRG-05MG): 0.75 µM
- IC50 (NCI-H1792): 2.49 µM
- IC50 (8305C): 0.397 µM
- IC50 (UACC-893): 4.99 µM
- IC50 (A-431): 0.249 µM
- IC50 (NALM-6): 0.214 µM
- IC50 (HLE): 0.624 µM
- IC50 (LK-2): 0.849 µM
